According to ChEMBL document CHEMBL6134817, “Novel gut-restricted bivalent agonists targeting mucosal 5-HT4R: Design, synthesis, and biological evaluation” (Eur J Med Chem, 2025):
The source made the active and inactive calls. The rule behind the calls is not given here.

Tests used:
[1] = biological target: T1, 5-hydroxytryptamine receptor 4 (Homo sapiens, UniProt Q13639); experiment: Agonist activity at full-length human 5-HT4R stably expressed in HEK293 cells assessed as increase in intracellular cAMP level incubated for 30 mins under dark condition by reporter gene assay; format: functional, cell-based
T1 sequence (Q13639 whole entry): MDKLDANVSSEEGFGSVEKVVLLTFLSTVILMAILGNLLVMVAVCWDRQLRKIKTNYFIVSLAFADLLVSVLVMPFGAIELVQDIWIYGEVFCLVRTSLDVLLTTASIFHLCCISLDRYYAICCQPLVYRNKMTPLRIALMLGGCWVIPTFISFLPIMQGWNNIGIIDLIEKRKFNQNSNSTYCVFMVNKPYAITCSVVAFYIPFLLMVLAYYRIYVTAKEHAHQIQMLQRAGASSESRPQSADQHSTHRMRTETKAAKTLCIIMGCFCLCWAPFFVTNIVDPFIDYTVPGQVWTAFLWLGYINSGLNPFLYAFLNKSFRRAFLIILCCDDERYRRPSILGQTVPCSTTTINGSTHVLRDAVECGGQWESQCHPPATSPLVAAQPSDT

[2] = biological target: T1, 5-hydroxytryptamine receptor 4; experiment: Agonist activity at full-length human 5-HT4R stably expressed in HEK293 cells assessed as increase in intracellular cAMP level incubated for 30 mins under dark condition by reporter gene assay relative to control; format: functional, cell-based; conditions: filed as agonist
[3] = biological target: T1, 5-hydroxytryptamine receptor 4; experiment: Displacement of [3H]-GR113808 from full-length human 5-HT4R stably expressed in HEK293 cell membrane by MicroBeta2 Reader analysis; format: cell membranes
[4] = biological target: T2, 5-hydroxytryptamine receptor 1A (Homo sapiens, UniProt P08908); experiment: Inhibition of 5-HT1AR (unknown origin)
T2 sequence (P08908 whole entry): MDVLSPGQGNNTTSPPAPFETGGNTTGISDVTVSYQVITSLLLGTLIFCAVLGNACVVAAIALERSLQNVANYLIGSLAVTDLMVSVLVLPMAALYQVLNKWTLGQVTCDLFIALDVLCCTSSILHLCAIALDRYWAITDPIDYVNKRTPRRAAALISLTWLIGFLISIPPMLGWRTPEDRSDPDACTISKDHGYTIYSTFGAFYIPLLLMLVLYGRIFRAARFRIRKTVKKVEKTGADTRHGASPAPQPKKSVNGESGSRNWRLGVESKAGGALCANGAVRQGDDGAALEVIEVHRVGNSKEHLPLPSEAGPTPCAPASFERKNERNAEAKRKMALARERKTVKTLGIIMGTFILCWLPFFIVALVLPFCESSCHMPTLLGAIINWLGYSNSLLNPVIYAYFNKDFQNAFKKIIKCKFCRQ

[5] = biological target: 5-hydroxytryptamine receptor 1B (Homo sapiens, UniProt P28222); experiment: Inhibition of 5-HT1BR (unknown origin)
5-hydroxytryptamine receptor 1B, sequence (P28222 whole entry): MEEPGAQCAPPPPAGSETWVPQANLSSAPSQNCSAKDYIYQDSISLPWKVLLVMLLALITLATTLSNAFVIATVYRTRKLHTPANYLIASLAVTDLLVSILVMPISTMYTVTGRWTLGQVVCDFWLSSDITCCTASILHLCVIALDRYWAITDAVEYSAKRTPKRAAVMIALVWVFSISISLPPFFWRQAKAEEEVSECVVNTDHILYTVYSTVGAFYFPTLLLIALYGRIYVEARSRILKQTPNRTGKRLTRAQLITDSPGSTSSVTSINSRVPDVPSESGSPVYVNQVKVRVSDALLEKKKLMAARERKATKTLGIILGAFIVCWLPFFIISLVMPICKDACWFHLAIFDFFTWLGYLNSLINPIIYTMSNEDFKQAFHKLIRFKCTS

[6] = biological target: 5-hydroxytryptamine receptor 2A (Homo sapiens, UniProt P28223); experiment: Inhibition of 5-HT2AR (unknown origin)
5-hydroxytryptamine receptor 2A, sequence (P28223 whole entry): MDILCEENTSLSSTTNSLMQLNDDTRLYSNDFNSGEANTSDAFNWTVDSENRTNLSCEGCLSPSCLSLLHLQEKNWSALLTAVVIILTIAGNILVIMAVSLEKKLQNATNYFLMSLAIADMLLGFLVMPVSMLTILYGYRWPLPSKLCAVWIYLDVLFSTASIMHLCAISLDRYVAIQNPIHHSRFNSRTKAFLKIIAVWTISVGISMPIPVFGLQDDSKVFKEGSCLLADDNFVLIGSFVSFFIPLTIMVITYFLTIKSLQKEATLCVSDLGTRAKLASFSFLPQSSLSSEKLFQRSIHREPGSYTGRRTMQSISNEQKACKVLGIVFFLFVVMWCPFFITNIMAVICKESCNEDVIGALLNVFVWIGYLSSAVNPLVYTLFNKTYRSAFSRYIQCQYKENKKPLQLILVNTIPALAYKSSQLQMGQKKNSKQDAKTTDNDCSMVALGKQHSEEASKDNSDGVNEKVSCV

[7] = biological target: 5-hydroxytryptamine receptor 2B (Homo sapiens, UniProt P41595); experiment: Inhibition of 5-HT2BR (unknown origin)
5-hydroxytryptamine receptor 2B, sequence (P41595 whole entry): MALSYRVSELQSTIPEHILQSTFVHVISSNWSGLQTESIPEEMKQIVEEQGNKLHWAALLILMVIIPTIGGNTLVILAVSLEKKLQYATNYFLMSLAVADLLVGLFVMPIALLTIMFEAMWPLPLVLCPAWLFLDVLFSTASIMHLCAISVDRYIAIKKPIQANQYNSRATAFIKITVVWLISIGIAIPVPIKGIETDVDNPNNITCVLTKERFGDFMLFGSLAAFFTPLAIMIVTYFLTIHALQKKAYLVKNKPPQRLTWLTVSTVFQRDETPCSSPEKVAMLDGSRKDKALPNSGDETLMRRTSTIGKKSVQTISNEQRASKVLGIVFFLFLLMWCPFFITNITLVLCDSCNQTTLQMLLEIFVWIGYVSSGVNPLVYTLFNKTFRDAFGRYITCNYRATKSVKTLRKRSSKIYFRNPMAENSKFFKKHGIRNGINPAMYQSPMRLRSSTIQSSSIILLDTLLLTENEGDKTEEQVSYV

[8] = biological target: T3, 5-hydroxytryptamine receptor 2C (Homo sapiens, UniProt P28335); experiment: Inhibition of 5-HT2CR (unknown origin)
T3 sequence (P28335 whole entry): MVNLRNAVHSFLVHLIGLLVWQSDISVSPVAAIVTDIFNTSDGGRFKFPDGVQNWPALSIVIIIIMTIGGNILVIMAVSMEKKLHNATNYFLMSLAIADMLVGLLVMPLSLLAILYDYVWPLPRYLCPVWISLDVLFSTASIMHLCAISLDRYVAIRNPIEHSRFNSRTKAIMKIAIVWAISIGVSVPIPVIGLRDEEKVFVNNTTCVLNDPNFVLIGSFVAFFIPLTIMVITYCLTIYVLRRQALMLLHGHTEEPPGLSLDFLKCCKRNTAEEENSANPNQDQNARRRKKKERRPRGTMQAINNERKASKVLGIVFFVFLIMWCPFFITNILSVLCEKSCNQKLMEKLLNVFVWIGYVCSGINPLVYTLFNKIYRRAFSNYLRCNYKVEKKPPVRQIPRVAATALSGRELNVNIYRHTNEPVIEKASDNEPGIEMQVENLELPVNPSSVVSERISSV

[9] = biological target: Serotonin 3 (5-HT3) receptor; experiment: Inhibition of 5-HT3R (unknown origin); format: protein-complex assay, Homo sapiens
[10] = biological target: T1, 5-hydroxytryptamine receptor 4; experiment: Inhibition of 5-HT4R (unknown origin)
[11] = biological target: 5-hydroxytryptamine receptor 5A (Homo sapiens, UniProt P47898); experiment: Inhibition of 5-HT5R (unknown origin)
5-hydroxytryptamine receptor 5A, sequence (P47898 whole entry): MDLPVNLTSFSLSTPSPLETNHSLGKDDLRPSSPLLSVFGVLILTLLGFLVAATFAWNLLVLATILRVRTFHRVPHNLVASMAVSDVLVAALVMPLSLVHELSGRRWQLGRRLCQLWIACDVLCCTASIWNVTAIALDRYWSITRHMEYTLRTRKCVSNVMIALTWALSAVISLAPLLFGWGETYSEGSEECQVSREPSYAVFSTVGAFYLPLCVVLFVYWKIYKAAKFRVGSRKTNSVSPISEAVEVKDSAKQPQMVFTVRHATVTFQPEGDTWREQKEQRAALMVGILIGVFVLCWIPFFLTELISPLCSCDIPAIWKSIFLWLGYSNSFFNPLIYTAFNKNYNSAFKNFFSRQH

[12] = biological target: 5-hydroxytryptamine receptor 6 (Homo sapiens, UniProt P50406); experiment: Inhibition of 5-HT6R (unknown origin)
5-hydroxytryptamine receptor 6, sequence (P50406 whole entry): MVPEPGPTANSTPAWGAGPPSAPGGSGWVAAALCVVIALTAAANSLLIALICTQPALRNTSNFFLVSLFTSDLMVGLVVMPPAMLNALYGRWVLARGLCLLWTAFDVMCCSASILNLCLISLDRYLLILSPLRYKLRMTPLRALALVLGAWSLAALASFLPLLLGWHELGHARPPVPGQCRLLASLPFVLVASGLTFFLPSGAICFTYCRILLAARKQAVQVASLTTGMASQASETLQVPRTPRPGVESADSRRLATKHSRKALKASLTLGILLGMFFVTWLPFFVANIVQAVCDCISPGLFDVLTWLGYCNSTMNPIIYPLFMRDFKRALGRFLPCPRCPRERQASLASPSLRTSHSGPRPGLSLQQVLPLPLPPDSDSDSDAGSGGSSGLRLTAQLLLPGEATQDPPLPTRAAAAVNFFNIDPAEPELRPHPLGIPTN

[13] = biological target: 5-hydroxytryptamine receptor 7 (Homo sapiens, UniProt P34969); experiment: Inhibition of 5-HT7R (unknown origin)
5-hydroxytryptamine receptor 7, sequence (P34969 whole entry): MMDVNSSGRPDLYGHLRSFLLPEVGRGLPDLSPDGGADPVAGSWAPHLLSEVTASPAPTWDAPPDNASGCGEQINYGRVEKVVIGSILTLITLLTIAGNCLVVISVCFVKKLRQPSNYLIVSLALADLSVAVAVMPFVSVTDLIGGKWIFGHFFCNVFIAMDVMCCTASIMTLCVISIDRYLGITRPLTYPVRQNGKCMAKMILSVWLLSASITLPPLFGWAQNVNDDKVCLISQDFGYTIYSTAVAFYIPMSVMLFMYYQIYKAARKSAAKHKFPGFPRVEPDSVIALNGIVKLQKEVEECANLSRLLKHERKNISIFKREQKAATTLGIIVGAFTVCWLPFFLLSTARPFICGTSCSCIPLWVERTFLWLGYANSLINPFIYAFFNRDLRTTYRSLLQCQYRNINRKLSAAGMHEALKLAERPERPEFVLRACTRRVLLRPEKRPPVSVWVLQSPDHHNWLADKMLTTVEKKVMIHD

[14] = Apparent permeability coefficient of compound at 10 uM incubated for 4 hrs by PAMPA; format: ADME
[15] = Permeability of compound assessed as compound recovery at 10 uM incubated for 4 hrs by PAMPA; format: ADME; conditions: read-out: Drug recovery
[16] = biological target: Voltage-gated inwardly rectifying potassium channel KCNH2 (Homo sapiens, UniProt Q12809); experiment: Inhibition of hERG stably expressed in HEK293 cells by patch-clamp method; format: toxicity, cell-based
Voltage-gated inwardly rectifying potassium channel KCNH2, sequence (Q12809 whole entry): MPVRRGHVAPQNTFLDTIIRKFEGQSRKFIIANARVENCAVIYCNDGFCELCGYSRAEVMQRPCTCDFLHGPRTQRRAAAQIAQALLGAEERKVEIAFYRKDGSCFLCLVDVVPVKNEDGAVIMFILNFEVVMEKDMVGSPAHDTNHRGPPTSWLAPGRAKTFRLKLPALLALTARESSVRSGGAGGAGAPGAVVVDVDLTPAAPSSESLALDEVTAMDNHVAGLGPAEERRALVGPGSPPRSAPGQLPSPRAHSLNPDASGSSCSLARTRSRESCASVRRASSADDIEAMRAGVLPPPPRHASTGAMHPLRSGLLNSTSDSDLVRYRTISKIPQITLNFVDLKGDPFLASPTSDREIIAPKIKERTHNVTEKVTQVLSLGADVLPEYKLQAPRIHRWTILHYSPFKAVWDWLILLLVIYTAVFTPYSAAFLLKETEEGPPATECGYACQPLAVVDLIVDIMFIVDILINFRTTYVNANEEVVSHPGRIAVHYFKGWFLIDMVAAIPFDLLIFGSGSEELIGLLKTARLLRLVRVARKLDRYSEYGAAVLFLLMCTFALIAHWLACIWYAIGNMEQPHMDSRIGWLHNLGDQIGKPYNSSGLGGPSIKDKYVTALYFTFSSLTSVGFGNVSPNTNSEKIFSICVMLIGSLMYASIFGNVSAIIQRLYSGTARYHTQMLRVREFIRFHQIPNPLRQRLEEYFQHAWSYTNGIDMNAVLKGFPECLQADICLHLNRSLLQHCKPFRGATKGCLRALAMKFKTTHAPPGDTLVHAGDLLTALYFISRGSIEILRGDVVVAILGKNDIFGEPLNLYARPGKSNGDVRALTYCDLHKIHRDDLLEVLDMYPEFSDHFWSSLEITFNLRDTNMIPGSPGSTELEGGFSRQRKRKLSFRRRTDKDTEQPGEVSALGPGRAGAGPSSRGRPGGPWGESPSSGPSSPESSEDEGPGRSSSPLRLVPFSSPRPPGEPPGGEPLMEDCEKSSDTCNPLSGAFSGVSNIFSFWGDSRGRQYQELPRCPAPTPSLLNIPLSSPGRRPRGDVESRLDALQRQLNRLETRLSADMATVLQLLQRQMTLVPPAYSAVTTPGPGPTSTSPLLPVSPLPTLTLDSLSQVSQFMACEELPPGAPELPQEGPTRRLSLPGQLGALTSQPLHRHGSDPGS

[17] = Stability in SGF at pH 1.5 assessed as half life by LC-MS/MS analysis; format: physicochemical
[18] = Stability in SIF at pH 6.8 assessed as half life by LC-MS/MS analysis; format: physicochemical
[19] = Stability in mouse plasma assessed as half life measured up to 120 mins by LC-MS/MS analysis; format: ADME, cell-free
[20] = Metabolic stability in human liver microsomes assessed as half life at 10 uM measured up to 60 mins in presence of NADPH by LC-MS/MS analysis; format: ADME, Microsome
[21] = Metabolic stability in rat liver microsomes assessed as half life at 10 uM measured up to 60 mins in presence of NADPH by LC-MS/MS analysis; format: ADME, Microsome
[22] = Metabolic stability in mouse liver microsomes assessed as half life at 10 uM measured up to 60 mins in presence of NADPH by LC-MS/MS analysis; format: ADME, Microsome
[23] = Metabolic stability in human liver microsomes assessed as intrinsic clearance measured per mg protein at 10 uM measured up to 60 mins in presence of NADPH by LC-MS/MS analysis; format: ADME, Microsome; conditions: read-out: CLH
[24] = Metabolic stability in rat liver microsomes assessed as intrinsic clearance measured per mg protein at 10 uM measured up to 60 mins in presence of NADPH by LC-MS/MS analysis; format: ADME, Microsome; conditions: read-out: CLH
[25] = Metabolic stability in mouse liver microsomes assessed as intrinsic clearance measured per mg protein at 10 uM measured up to 60 mins in presence of NADPH by LC-MS/MS analysis; format: ADME, Microsome; conditions: read-out: CLH
[26] = Cmax in fasted male C57BL/6J mouse at 10 mg/kg, po measured after 1 hr by LC-MS/MS analysis; format: ADME, organism-based; conditions: in vivo
[27] = Drug excretion in fasted male Sprague-Dawley rat at 5 mg/kg, po measured for 24 hrs by LC-MS/MS analysis; format: ADME, organism-based; conditions: in vivo, read-out: Drug excretion
[28] = Drug excretion in feces of fasted male Sprague-Dawley rat at 5 mg/kg, po measured for 24 hrs by LC-MS/MS analysis; format: ADME, organism-based; conditions: faeces, read-out: Drug excretion
Mus musculus [29] = experiment: Induction of whole-gut transit in mouse assessed as decrease in time for carmine red dye excretion administered orally via gavage measured for every 5 mins; format: functional, organism-based; conditions: dose 3-15 mg/kg, route po
Mus musculus [30] = experiment: Anti-constipation effect in mouse assessed as decrease in bead expulsion time at 3 to 15 mg/kg, po pretreated with compound 1 hr prior to glass bead insertion into distal colon measured after regaining conscious; format: functional, organism-based; conditions: dose 3-15 mg/kg
Mus musculus [31] = experiment: Anti-constipation effect in mouse assessed as increase in fecal water content at 3 to 10 mg/kg, po measured after 1 hr; format: functional, organism-based; conditions: dose 3-10 mg/kg
Mus musculus [32] = experiment: Anti-constipation effect in mouse assessed as increase in fecal output at 3 to 10 mg/kg, po measured after 1 hr; format: functional, organism-based; conditions: dose 3-10 mg/kg

EC50 [1]: 0.00041 µM | Efficacy [2]: 99.6% | Ki [3]: 0.0131 µM | IC50 [4]: > 10 µM | IC50 [5]: > 10 µM | IC50 [6]: > 1 µM | IC50 [7]: > 1 µM | IC50 [8]: > 10 µM | IC50 [9]: > 10 µM | IC50 [10]: 25.1 µM | IC50 [11]: > 10 µM | IC50 [12]: > 1 µM | IC50 [13]: > 10 µM | Papp at 4 h, 10 µM [14]: 3.1 ×10⁻⁶ cm/s | recovery at 4 h, 10 µM [15]: 83.1% | half-life [17]: > 24 h | half-life [18]: > 24 h | half-life [19]: 3.06 h | half-life at 10 µM [20]: 0.356 h | half-life at 10 µM [21]: 4.62 h | half-life at 10 µM [22]: 7.7 h | microsomal CLint at 10 µM [23]: 64.8 µL/min/mg | microsomal CLint at 10 µM [24]: 5 µL/min/mg | microsomal CLint at 10 µM [25]: 3 µL/min/mg | Cmax [26]: 8.5 ng/mL | dose excreted at 24 h [27]: ~100% | dose excreted at 24 h [28]: ~100%
SMILES: Nc1c(Cl)cc(C(=O)NCC2CCN(CCCCCC(=O)NCCOCCOCCNC(=O)NCCCCNC(=O)NCCOCCOCCNC(=O)CCCCCN3CCC(CNC(=O)c4cc(Cl)c(N)c5c4OCC5)CC3)CC2)c2c1CCO2
IC50 [16]: > 100 µM | Activity (Mus musculus [29]): Dose-dependent-effect; Superior To Prucalopride Succinate At 10 Mg/Kg | Activity (Mus musculus [30]): Active | Activity (Mus musculus [31]): Active; Efficacy Comparable To Prucalopride Succinate At 10 Mg/Kg | Activity (Mus musculus [32]): Active; Efficacy Comparable To Prucalopride Succinate At 10 Mg/Kg
